Experimental findings from US4533553A, “Polycyclic ether antibiotic” (priority 1983, dated 1985) are described below.

Counter-ions that a name gives are not always drawn.

One test has as its system rumen fluid. In words: in vitro rumen technique, propionic acid production. The arrangement: species or system cow. Here is the method:
The value of animal feeds generally has been determined directly by feeding the animal. British Patent Specification No. 1,197,826 details an in vitro rumen technique whereby the changes occurring in feeds brought about by microorganisms are measured more readily and with great accuracy in the evaluation of animal feeds. This technique involves the use of an apparatus in which the digestive processes of the animals are conducted and studied in vitro. The animal feeds, rumen inoculum and various growth promotants are introduced into and withdrawn from a laboratory unit under carefully controlled conditions and the changes taken place are studied critically and progressively during the consumption of the feed by the microorganisms. […] The change in propionic acid content is expressed as percent of the propionic acid content found in the control rumen fluid. Long term in vivo feeding studies are used to show a reliable correlation between propionic acid increase in the rumen fluid and improved animal performance.
Rumen fluid is collected from a fistulated cow which is fed on a commercial fattening ration plus hay. The rumen fluid is immediately filtered through cheese cloth, and 10 ml added to a 50 ml conical flask containing 400 mg. of standard substrate (68% corn starch+17% cellulose+15% extracted soybean meal), 10 ml. of a pH 6.8 buffer and the test compound. The flasks are gassed with oxygen free nitrogen for about two minutes, and incubated in a shaking water bath at 39° C. for about 16 hours. All tests are conducted in triplicate.
After incubation, 5 ml. of the sample is mixed with 1 ml. of 25% metaphosphoric acid. After 10 minutes 0.25 ml. of formic acid is added and the mixture centrifuged at 1,500 r.p.m. for 10 minutes. Samples are then analyzed by gas-liquid chromatograhy by the method of D. W. Kellog, J. Dairy Science, 52, 1690 (1969). Peak heights for acetic, propionic and butyric acids are determined for samples from untreated and treated incubation flasks.

In a further test the test system is Pasteurella multocida. In words: in vitro MIC test. To be noted: strain 59A001, 24 hours. In kind it is cell-based. Here is the method:
(§1) In Table I, below, the results of in vitro MIC tests are summarized. For this test each organism is inoculated in a series of test tubes containing nutrient medium and varying concentrations of Compound 53,607 to determine the minimal concentration of the antibiotic in mcg/ml which inhibits the growth of the organism over a period of 24 hours (MIC).

For the next test, the system named is Haemophilus influenza. In words: in vitro MIC test. Type of test: cell-based. To be noted: 24 h. Here is the method: as §1
In test [1] the test system is Fusobacterium necrophorum. In words: in vitro MIC test. Type of test: cell-based. To be noted: strain 84C004, 24 hours. Here is the method:
as §1

The next test concerns Streptococcus pyogenes. Briefly: in vitro MIC test. In kind it is cell-based. The settings on record: 24 h. Here is the method:
as §1

Another test relates to Bacillus subtilis. In words: in vitro MIC test. In kind it is cell-based. The settings on record: strain 06A001, 24 hours. Here is the method: as §1
The test system of another test is Corynebacterium pyogenes. Briefly: in vitro MIC test. The settings on record: Rhodococcus (subgen. Prescottella) equi; strain 11D001, 24 hours. In kind it is cell-based. Here is the method: as §1
Another test has as its system Bacteroides fragilis. Briefly: in vitro MIC test. To be noted: 24 h. Type of test: cell-based. Here is the method:
as §1

The test system of a further test is Bacteroides vulgatis. In words: in vitro MIC test. In kind it is cell-based. The settings on record: strain 78E032, 24 hours. Here is the method:
as §1

In a further test the test system is Treponema hyodysenteriae. Briefly: in vitro MIC test. Type of test: cell-based. The settings on record: Brachyspira hyodysenteriae, 24 h. Here is the method:
as §1

In another test the test system is Staphylococcus aureus. In words: in vitro MIC test. In kind it is cell-based. The settings on record: 24 h. Here is the method: as §1
Another test concerns Neisseria sicca. Briefly: in vitro MIC test. The settings on record: strain 66C000, 24 hours. In kind it is cell-based. Here is the method: as §1
Another test has as its system Streptococcus faecalis. Briefly: in vitro MIC test. Type of test: cell-based. The settings on record: Enterococcus faecalis; strain 02A006, 24 hours. Here is the method:
as §1

Test [2] relates to Staphylococcus epidermidis. In words: in vitro MIC test. Type of test: cell-based. To be noted: 24 h. Here is the method:
as §1

Another test deals with Clostridium perfringens. In words: microbe, parasite or virus in culture. Type of test: cell-based.

For the molecule `CC[C@@H](C(=O)[C@@H](C)[C@@H](O)[C@H](C)[C@@H]1O[C@@H]([C@@H](CC)C(=O)O)CC[C@@H]1C)[C@H]1O[C@]2(C=C[C@@H](O)[C@]3(CC[C@@](C)([C@H]4CC[C@](O)(CC)[C@H](C)O4)O3)O2)[C@H](C)C[C@@H]1C` [Salinomycin, reference compound], the “increase in propionic acid” value with rumen fluid (5 μg./ml., comparison with Salinomycin) was “about 52%”.
Regarding `CC[C@@]1([C@@H]2O[C@@H]([C@H]3O[C@@](O)(CO)[C@H](C)C[C@@H]3C)C[C@@H]2C)CC[C@H]([C@]2(C)CC[C@]3(C[C@H](O)[C@@H](C)[C@@H]([C@@H](C)[C@@H](OC)[C@H](C)C(=O)O)O3)O2)O1` [Monensin, reference compound], the “increase of propionic acid over the control” value in the test on rumen fluid (10 μg./ml.) was “about 20%”.
As to `CC(=CC(C)C1OC2(CCC(C)(C3CCC(C)C4(OC(C5OC(O)(CO)C(C)CC5C)CC4C)O3)O2)CC(O)C1C)C(=O)C(C)CC(C)C(=O)O` (stereo not drawn) [53,607 (sodium salt)], the MIC against Pasteurella multocida is above 200 µg/mL; in the test with Haemophilus influenza (strain 54A036, 24 hours), 6.25 µg/mL; with Haemophilus influenza (strain 54A037, 24 hours), 3.12 µg/mL; in the test on Haemophilus influenza (strain 54A059, 24 hours), 12.5 µg/mL; in test [1], 3.12 µg/mL; against Streptococcus pyogenes, below 0.01 µg/mL. Further, the MIC against Bacillus subtilis turned out to be 0.39 µg/mL; in the test on Corynebacterium pyogenes, 25 µg/mL; against Bacteroides fragilis (strain 78C004, 24 hours) it was 12.5 µg/mL; with Bacteroides fragilis (strain 78C009, 24 hours) it was 6.25 µg/mL; with Bacteroides fragilis (strain 78C010, 24 hours) it was 6.25 µg/mL; with Bacteroides vulgatis, 3.12 µg/mL. Also, the MIC worked out at 0.39 µg/mL in the test on Treponema hyodysenteriae (strain 94A001, 24 hours); 0.098 µg/mL with Treponema hyodysenteriae (strain 94A002, 24 hours); 0.78 µg/mL against Staphylococcus aureus (strain 01A005, 24 hours); 0.78 µg/mL in the test with Staphylococcus aureus (strain 01A052, 24 hours); 1.56 µg/mL with Staphylococcus aureus (strain 01A110, 24 hours); 1.56 µg/mL with Staphylococcus aureus (strain 01A400, 24 hours). For the same molecule, the MIC came out at 25 µg/mL against Neisseria sicca; 1.56 µg/mL in the test with Streptococcus faecalis; 0.78 µg/mL in [2] (strain 01B087R); 0.78 µg/mL in [2] (strain 01B111RR); 1.56 µg/mL in test [2] (strain 01B126, 24 hours); 0.98 µg/mL with Clostridium perfringens (Clostridium perfringens, 24 h). This molecule showed an MIC against Clostridium perfringens (strain 10A003, 24 hours) of 0.98 µg/mL.
